Assay results taken from paper PMC12022909, “A Multicomponent Reaction-Based Platform Opens New Avenues in Aryl Hydrocarbon Receptor Modulation” (ACS Central Science, 2025).
pEC50: −log10 of the molar value.

Columns and labels:
[1] = molecular target: T1, aryl hydrocarbon receptor (AhR) (Homo sapiens, UniProt P35869); assay: AhR/XRE-dependent luciferase reporter gene assay in XRE-HepG2 cells; type: cell-based; conditions: for pEC50: XRE-HepG2 cells, 8 h, unit as in the supplements, read-out: AhR/XRE-dependent luciferase activity EC50
T1 construct: AhR-dependent reporter gene activity was determined in human HepG2 cells stably transfected with an XRE; endogenous in cells; host or cells: XRE-HepG2 (human HepG2 hepatoma cells stably carrying an XRE-luciferase plasmid)
T1 sequence (P35869 11-848): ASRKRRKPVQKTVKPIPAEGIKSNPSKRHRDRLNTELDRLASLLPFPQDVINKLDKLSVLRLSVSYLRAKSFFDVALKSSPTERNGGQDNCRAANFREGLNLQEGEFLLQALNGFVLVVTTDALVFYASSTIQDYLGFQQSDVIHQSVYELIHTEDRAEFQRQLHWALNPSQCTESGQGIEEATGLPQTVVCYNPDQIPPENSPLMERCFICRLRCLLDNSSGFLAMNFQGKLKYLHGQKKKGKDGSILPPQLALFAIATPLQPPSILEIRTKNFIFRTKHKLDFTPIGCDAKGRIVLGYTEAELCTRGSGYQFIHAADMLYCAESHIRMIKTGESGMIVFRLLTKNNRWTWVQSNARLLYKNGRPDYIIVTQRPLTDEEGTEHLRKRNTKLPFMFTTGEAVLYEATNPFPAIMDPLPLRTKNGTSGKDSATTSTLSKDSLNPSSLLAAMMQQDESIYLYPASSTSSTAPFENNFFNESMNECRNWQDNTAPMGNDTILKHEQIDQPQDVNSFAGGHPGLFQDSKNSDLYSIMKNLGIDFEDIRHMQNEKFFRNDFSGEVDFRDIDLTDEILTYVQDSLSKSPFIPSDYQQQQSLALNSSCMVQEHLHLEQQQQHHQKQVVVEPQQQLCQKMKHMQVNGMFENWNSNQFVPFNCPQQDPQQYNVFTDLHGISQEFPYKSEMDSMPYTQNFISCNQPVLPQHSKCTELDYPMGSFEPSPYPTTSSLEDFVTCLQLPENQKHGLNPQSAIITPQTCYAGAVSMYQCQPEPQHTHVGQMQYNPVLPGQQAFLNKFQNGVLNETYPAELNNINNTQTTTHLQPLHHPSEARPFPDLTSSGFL
Description: (f) AhR/XRE-dependent reporter gene activity results (EC50/μM).
Data are shown as mean ± SEM.
The human XRE -HepG2 reporter cell -line was a kind gift of K. Gradin and L. Poellinger (Karolinska Institute, Stockholm,
antibiotic/antimycotic solution, and 0.8 mg/ml G418. All cells were cultivated at 37 °C in a humidified atmosphere containing 5% CO 2.
AhR-dependent reporter gene activity was determined in human HepG2 cells stably transfected with an XRE -harboring luciferase plasmid (XRE-HepG2 cells). […] Luciferase activity was normalized to protein content.

AhR-GFP = molecular target: T2, AhR-GFP (Homo sapiens, UniProt P35869); assay: MCF7 AhR-GFP.IRES.mCherry reporter, flow cytometry quantification of AhR protein levels; type: cell-based; conditions: 5 μM, 5 h
T2 construct: host or cells: MCF7, lentiviral transduction
T2 sequence (P08238 whole entry partner, one chain of several): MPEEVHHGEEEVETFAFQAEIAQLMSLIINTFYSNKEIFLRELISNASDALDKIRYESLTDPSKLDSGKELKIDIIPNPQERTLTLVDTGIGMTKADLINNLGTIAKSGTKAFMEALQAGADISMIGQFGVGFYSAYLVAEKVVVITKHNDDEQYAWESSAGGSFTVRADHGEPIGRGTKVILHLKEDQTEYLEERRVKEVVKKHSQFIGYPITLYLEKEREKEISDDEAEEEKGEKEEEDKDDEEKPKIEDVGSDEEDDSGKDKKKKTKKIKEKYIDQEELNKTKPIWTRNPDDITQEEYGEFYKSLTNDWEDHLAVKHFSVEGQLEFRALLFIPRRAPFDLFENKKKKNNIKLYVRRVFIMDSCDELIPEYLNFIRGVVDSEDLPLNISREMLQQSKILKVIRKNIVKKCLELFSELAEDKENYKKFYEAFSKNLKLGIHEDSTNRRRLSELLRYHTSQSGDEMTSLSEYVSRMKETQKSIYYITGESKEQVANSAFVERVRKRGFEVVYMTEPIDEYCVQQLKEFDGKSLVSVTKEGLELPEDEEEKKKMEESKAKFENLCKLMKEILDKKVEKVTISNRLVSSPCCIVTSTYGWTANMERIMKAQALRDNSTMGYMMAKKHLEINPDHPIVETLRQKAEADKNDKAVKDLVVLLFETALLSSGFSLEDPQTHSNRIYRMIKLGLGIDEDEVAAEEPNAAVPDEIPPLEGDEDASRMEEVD
T2 sequence (O00170 whole entry partner, one chain of several): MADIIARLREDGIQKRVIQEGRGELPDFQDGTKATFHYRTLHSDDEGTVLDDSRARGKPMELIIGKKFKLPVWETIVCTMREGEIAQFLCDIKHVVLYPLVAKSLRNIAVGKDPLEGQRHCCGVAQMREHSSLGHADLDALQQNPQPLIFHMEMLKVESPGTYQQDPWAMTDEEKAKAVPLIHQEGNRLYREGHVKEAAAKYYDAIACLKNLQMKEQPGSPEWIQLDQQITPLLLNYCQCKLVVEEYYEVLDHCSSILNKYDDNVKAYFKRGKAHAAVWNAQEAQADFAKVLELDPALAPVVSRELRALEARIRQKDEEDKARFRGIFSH
Description: Figure 6 Bifunctional AhR probes and AhR reporter in MCF7 cells. (a) Synthetic access to the conjugatable AhR ligand 5m. (b) Structure, yield, and EC50 value of the model amide 12a and MD simulation of AhR with 12a (last snapshot). (c) PROTAC-like compound 12b and dual probes 12c–d. Reaction conditions: (a) 5m (1 equiv), amine (1 equiv), HATU, DIPEA, DMF, rt, 24 h, Ar atm; (b) 5m (2 equiv), diamine (1 equiv), HATU, DIPEA, DMF, rt, 24 h, Ar atm. (d) General setup of the reporter system for quantifying AhR protein levels. (e) The population of MCF7 reporter cells (MCF7 AhR-GFP.IRES.mCherry) gated by flow cytometry and used for quantification of AhR. […] Values represent the ratio of the geometric mean of GFP and mCherry values in the gated population. (g) Change in protein levels relative to vehicle treatment (DMSO) in MCF7 cells treated with 12b at 10 μM for 5 h quantified by TMT labeling and LC/MS analysis versus p-Value. TEXT PRINTED IN THE PICTURE: (b) 12a: EC50 = 0.40 μM […]
To test the effect of these compounds on AhR abundance, we established a cellular reporter in the breast cancer cell line MCF7. AhR in this case is fused to GFP bearing an independently translated mCherry on the same transcript to allow correction for general transcriptional interference of treatments (Figure 6d,e). […]

SMILES	pEC50 [1]	increase in the EC50 value relative to 5c ([1]; from reporter gene EC50 values)	AhR degradation in reporter system (AhR-GFP)
Cc1[nH]c2ccccc2c1-c1c2[nH]c3ccccc3c2cc2[nH]c3ccccc3c12 [5e]	6.28	1.4 fold	pronounced AhR degradation
CCOc1c2[nH]c3ccccc3c2cc2[nH]c3ccccc3c12 [compound 8, 6-ethoxy-ICZ]	7.05	–	–
